Results reported in publication PMC7351026, “Serum Half-Lives for Short- and Long-Chain Perfluoroalkyl Acids after Ceasing Exposure from Drinking Water Contaminated by Firefighting Foam” (Environmental Health Perspectives, 2020).

Columns and labels:
[1] = PFAS levels in serum samples of airport employees (LC/MS/MS)
Method in brief: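 Serum from airport employees, drawn after contaminated drinking-water exposure ended, up to five monthly rounds, all reanalyzed in one batch. 25 μL serum precipitated with acetonitrile/methanol plus labeled internal standards; LC/MS/MS on BEH C18 with ammonium acetate/methanol gradient, calibrants prepared in FBS.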

[2] = Individual serum elimination rate and half-life (linear regression per employee); settings: individual estimate;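 on HL (half-life): half-life in years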
Method in brief: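 Log-transformed serum PFAS concentrations regressed on days since clean bottled water supply, per employee, assuming one-compartment first-order elimination. Individual k taken as −β (negative slope); half-life as ln2/k for each PFAS. No half-life calculated when β was positive.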

[3] = 1st sampling (September 2018), count 17
[4] = 2nd sampling (October 2018), count 17
[5] = 3rd sampling (November, 2018), count 17
[6] = 4th sampling (December 2018), count 16
[7] = 5th sampling (January 2019), count 16
[8] = employees participated in first blood sampling and repeated blood and urine sampling, N=17
[9] = employees participated in first blood sampling only, N=9, 11-14 d after end of exposure

Perfluoro-2/6-methylheptanesulfonate [2/6m-PFOS]
Serum PFAS level, 25 percentile [1, 3]: 1.4 | Serum PFAS level, 75 percentile [1, 3]: 3.6 | Serum PFAS level, Max [1, 3]: 7.5 | Serum PFAS level, Median [1, 3]: 2.6 | Serum PFAS level, Min [1, 3]: 1.0 | Serum PFAS level, 25 percentile [1, 4]: 1.5 | Serum PFAS level, 75 percentile [1, 4]: 2.8 | Serum PFAS level, Max [1, 4]: 7.2 | Serum PFAS level, Median [1, 4]: 2.2 | Serum PFAS level, Min [1, 4]: 0.97 | Serum PFAS level, 25 percentile [1, 5]: 1.3 | Serum PFAS level, 75 percentile [1, 5]: 3.5 | Serum PFAS level, Max [1, 5]: 8.1 | Serum PFAS level, Median [1, 5]: 2.3 | Serum PFAS level, Min [1, 5]: 0.66 | Serum PFAS level, 25 percentile [1, 6]: 0.96 | Serum PFAS level, 75 percentile [1, 6]: 2.9 | Serum PFAS level, Max [1, 6]: 7.1 | Serum PFAS level, Median [1, 6]: 1.9 | Serum PFAS level, Min [1, 6]: 0.57 | Serum PFAS level, 25 percentile [1, 7]: 1.2 | Serum PFAS level, 75 percentile [1, 7]: 2.7 | Serum PFAS level, Max [1, 7]: 7.0 | Serum PFAS level, Median [1, 7]: 2.1 | Serum PFAS level, Min [1, 7]: 0.83 | PFAS in first serum sample, median (range) [1, 8]: 2.6 (1.0–7.5) ng/mL | PFAS in first serum sample, median (range) [1, 9]: 1.8 (0.84–3.2) ng/mL | Initial serum PFAS level, max ([1]; females (N=7)): 2.8 ng/mL | Initial serum PFAS level, median ([1]; females (N=7)): 1.4 ng/mL | Initial serum PFAS level, min ([1]; females (N=7)): 1.0 ng/mL | Initial serum PFAS level, Max ([1]; males (N=19)): 7.5 ng/mL | Initial serum PFAS level, Min ([1]; males (N=19)): 0.84 ng/mL | Initial serum PFAS level, median ([1]; males (N=19)): 2.5 ng/mL | Serum level, median (range) ([1]; second to fifth samplings, 17 airport employees): 2.1 (0.57–8.1) ng/mL | Elimination rate ([2]; subject 1, 5 samples): −0.2 yearly | Elimination rate ([2]; subject 2, 5 samples): 0.5 yearly | HL (half-life) ([2]; subject 2, 5 samples): 1.3 year | Elimination rate ([2]; subject 3, 5 samples): 0.7 yearly | HL (half-life) ([2]; subject 3, 5 samples): 1.0 year | Elimination rate ([2]; subject 4, 5 samples): 0.0 yearly | Elimination rate ([2]; subject 5, 5 samples): 0.4 yearly | HL (half-life) ([2]; subject 5, 5 samples): 1.6 year | Elimination rate ([2]; subject 6, 4 samples): 0.4 yearly | HL (half-life) ([2]; subject 6, 4 samples): 1.7 year | Elimination rate ([2]; subject 7, 5 samples): 1.1 yearly | HL (half-life) ([2]; subject 7, 5 samples): 0.6 year | Elimination rate ([2]; subject 8, 5 samples): −0.2 yearly | Elimination rate ([2]; subject 9, 5 samples): 0.2 yearly | HL (half-life) ([2]; subject 9, 5 samples): 4.2 year | Elimination rate ([2]; subject 10, 5 samples): −0.007 yearly | Elimination rate ([2]; subject 11, 5 samples): 1.7 yearly | HL (half-life) ([2]; subject 11, 5 samples): 0.4 year | Elimination rate ([2]; subject 12, 5 samples): 1.7 yearly | HL (half-life) ([2]; subject 12, 5 samples): 0.4 year | Elimination rate ([2]; subject 13, 5 samples): 1.0 yearly | HL (half-life) ([2]; subject 13, 5 samples): 0.7 year | Elimination rate ([2]; subject 14, 4 samples): 1.5 yearly | HL (half-life) ([2]; subject 14, 4 samples): 0.5 year | Elimination rate ([2]; subject 15, 5 samples): 1.2 yearly | HL (half-life) ([2]; subject 15, 5 samples): 0.6 year | Elimination rate ([2]; subject 16, 5 samples): −0.1 yearly | Elimination rate ([2]; subject 17, 5 samples): 1.9 yearly | HL (half-life) ([2]; subject 17, 5 samples): 0.4 year

perfluoro-3/4/5-methylheptanesulfonate [3/4/5m-PFOS]
Serum PFAS level, 25 percentile [1, 3]: 2.7 | Serum PFAS level, 75 percentile [1, 3]: 6.3 | Serum PFAS level, Max [1, 3]: 17 | Serum PFAS level, Median [1, 3]: 4.9 | Serum PFAS level, Min [1, 3]: 1.7 | Serum PFAS level, 25 percentile [1, 4]: 2.4 | Serum PFAS level, 75 percentile [1, 4]: 4.8 | Serum PFAS level, Max [1, 4]: 15 | Serum PFAS level, Median [1, 4]: 4.1 | Serum PFAS level, Min [1, 4]: 1.3 | Serum PFAS level, 25 percentile [1, 5]: 2.5 | Serum PFAS level, 75 percentile [1, 5]: 5.1 | Serum PFAS level, Max [1, 5]: 16 | Serum PFAS level, Median [1, 5]: 4.2 | Serum PFAS level, Min [1, 5]: 1.0 | Serum PFAS level, 25 percentile [1, 6]: 2.1 | Serum PFAS level, 75 percentile [1, 6]: 4.9 | Serum PFAS level, Max [1, 6]: 16 | Serum PFAS level, Median [1, 6]: 3.6 | Serum PFAS level, Min [1, 6]: 1.0 | Serum PFAS level, 25 percentile [1, 7]: 2.7 | Serum PFAS level, 75 percentile [1, 7]: 4.9 | Serum PFAS level, Max [1, 7]: 16 | Serum PFAS level, Median [1, 7]: 4.0 | Serum PFAS level, Min [1, 7]: 1.0 | PFAS in first serum sample, median (range) [1, 8]: 4.9 (1.7–17) ng/mL | PFAS in first serum sample, median (range) [1, 9]: 2.9 (1.2–6.7) ng/mL | Initial serum PFAS level, max ([1]; females (N=7)): 5.4 ng/mL | Initial serum PFAS level, median ([1]; females (N=7)): 2.9 ng/mL | Initial serum PFAS level, min ([1]; females (N=7)): 1.7 ng/mL | Initial serum PFAS level, Max ([1]; males (N=19)): 17 ng/mL | Initial serum PFAS level, Min ([1]; males (N=19)): 1.2 ng/mL | Initial serum PFAS level, median ([1]; males (N=19)): 4.9 ng/mL | Elimination rate ([2]; subject 1, 5 samples): 0.4 yearly | HL (half-life) ([2]; subject 1, 5 samples): 1.9 year | Elimination rate ([2]; subject 2, 5 samples): 0.3 yearly | HL (half-life) ([2]; subject 2, 5 samples): 2.1 year | Elimination rate ([2]; subject 3, 5 samples): 0.4 yearly | HL (half-life) ([2]; subject 3, 5 samples): 1.7 year | Elimination rate ([2]; subject 4, 5 samples): 0.1 yearly | HL (half-life) ([2]; subject 4, 5 samples): 11 year | Elimination rate ([2]; subject 5, 5 samples): 0.2 yearly | HL (half-life) ([2]; subject 5, 5 samples): 3.1 year | Elimination rate ([2]; subject 6, 4 samples): 0.04 yearly | HL (half-life) ([2]; subject 6, 4 samples): 19 year | Elimination rate ([2]; subject 7, 5 samples): 0.1 yearly | HL (half-life) ([2]; subject 7, 5 samples): 4.8 year | Elimination rate ([2]; subject 8, 5 samples): −0.2 yearly | Elimination rate ([2]; subject 9, 5 samples): 0.1 yearly | HL (half-life) ([2]; subject 9, 5 samples): 10 year | Elimination rate ([2]; subject 10, 5 samples): 0.2 yearly | HL (half-life) ([2]; subject 10, 5 samples): 4.0 year | Elimination rate ([2]; subject 11, 5 samples): 2.0 yearly | HL (half-life) ([2]; subject 11, 5 samples): 0.4 year | Elimination rate ([2]; subject 12, 5 samples): 0.5 yearly | HL (half-life) ([2]; subject 12, 5 samples): 1.3 year | Elimination rate ([2]; subject 13, 5 samples): 0.5 yearly | HL (half-life) ([2]; subject 13, 5 samples): 1.5 year | Elimination rate ([2]; subject 14, 4 samples): 0.3 yearly | HL (half-life) ([2]; subject 14, 4 samples): 2.0 year | Elimination rate ([2]; subject 15, 5 samples): 2.2 yearly | HL (half-life) ([2]; subject 15, 5 samples): 0.3 year | Elimination rate ([2]; subject 16, 5 samples): 0.3 yearly | HL (half-life) ([2]; subject 16, 5 samples): 2.0 year | Elimination rate ([2]; subject 17, 5 samples): 1.9 yearly | HL (half-life) ([2]; subject 17, 5 samples): 0.4 year
